# Measured values reported in the supplement of paper PMC11061612.
# What was measured:
# [1] = tested on: RCC10RGB (Kidney Carcinoma); assay: Bliss excess, mean over the matrix (fraction); higher = more synergy
# Procedure, shortened: (§1)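 Bliss excess equals the observed combination effect minus the expected value EA + EB − EA·EB, where EA and EB are the effects of each agent alone. Combination Emax is the second-highest inhibition within the matrix. Inhibition was scaled from CellTiter-Glo 2.0 luminescence, with 0 set by vehicle wells and 1 by blank wells, after 72 hours of two-drug dosing of cells plated in 1536-well plates.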
# [2] = tested on: HuO9 (Osteosarcoma); assay: as above
# Procedure, shortened: as §1
# [3] = tested on: SKN-3 (Head and Neck Carcinoma); assay: as above
# Procedure, shortened: as §1
# [4] = tested on: MES-SA (Other Solid Carcinomas); assay: as above
# Procedure, shortened: as §1
# [5] = tested on: NCI-H1688 (Small Cell Lung Carcinoma); assay: as above
# Procedure, shortened: as §1
# [6] = tested on: ETK-1 (Biliary Tract Carcinoma); assay: as above
# Procedure, shortened: as §1
# [7] = tested on: GDM-1 (Acute Myeloid Leukemia); assay: as above
# Procedure, shortened: as §1
# [8] = tested on: HCC38 (Breast Carcinoma); assay: as above
# Procedure, shortened: as §1
# [9] = tested on: NOMO-1 (Acute Myeloid Leukemia); assay: as above
# Procedure, shortened: as §1
# [10] = tested on: SW48 (Colorectal Carcinoma); assay: as above
# Procedure, shortened: as §1
# [11] = tested on: EW-22 (Ewing's Sarcoma); assay: as above
# Procedure, shortened: as §1
# [12] = tested on: U-118-MG (Low Grade Glioma); assay: as above
# Procedure, shortened: as §1
# [13] = tested on: D-283MED (Other Solid Carcinomas); assay: as above
# Procedure, shortened: as §1
# [14] = tested on: HCC1143 (Breast Carcinoma); assay: combination Emax (second highest fraction inhibited in the dose matrix, 72 h); higher = more inhibition; extreme values may be limits of the assay
# Procedure, shortened: as §1
# [15] = tested on: MES-SA (Other Solid Carcinomas); assay: as above
# Procedure, shortened: as §1
# [16] = tested on: SLVL (B-Cell Non-Hodgkin's Lymphoma); assay: as above
# Procedure, shortened: as §1
# [17] = tested on: 647-V (Bladder Carcinoma); assay: as above
# Procedure, shortened: as §1
# [18] = tested on: SNG-M (Endometrial Carcinoma); assay: as above
# Procedure, shortened: as §1
# [19] = tested on: MSTO-211H (Mesothelioma); assay: as above
# Procedure, shortened: as §1
# [20] = tested on: SW948 (Colorectal Carcinoma); assay: Bliss excess, mean over the matrix (fraction); higher = more synergy
# Procedure, shortened: as §1
Structure (SMILES),Bliss excess [1],Bliss excess [2],Bliss excess [3],Bliss excess [4],Bliss excess [5],Bliss excess [6],Bliss excess [7],Bliss excess [8],Bliss excess [9],Bliss excess [10],Bliss excess [11],Bliss excess [12],Bliss excess [13],combination Emax [14],combination Emax [15],combination Emax [16],combination Emax [17],combination Emax [18],combination Emax [19],Bliss excess [20]
"CCN(CCO)CCCOc1ccc2c(Nc3cc(CC(=O)Nc4cccc(F)c4)[nH]n3)ncnc2c1 [AZD2811] + C[C@@H]1COCCN1C2=NC(=NC(=C2)C3(CC3)[S@](=N)(=O)C)C4=C5C=CNC5=NC=C4 [AZD6738] (first compound max 1 µM, 7x7, partner max 10 µM)",-0.0472,-0.0491,-0.0167,-0.0328,-0.0054,-0.0627,-0.0749,-0.0372,-0.0118,-0.0228,-0.0503,-0.0337,-0.0541,0.824,0.654,0.784,0.524,0.932,0.727,–
"CCN(CCO)CCCOc1ccc2c(Nc3cc(CC(=O)Nc4cccc(F)c4)[nH]n3)ncnc2c1 [AZD2811] + O=C(c1cc(Cc2n[nH]c(=O)c3ccccc23)ccc1F)N1CCN(C(=O)C2CC2)CC1 [Olaparib] (first compound max 1 µM, 7x7, partner max 10 µM)",-0.0004,0.0215,-0.0236,0.0754,-0.0131,0.0049,-0.0709,-0.003,0.0454,0.0145,-0.0612,0.0186,-0.0234,0.372,0.519,0.723,0.275,0.25,0.35,–
"C[C@@H]1COCCN1c1cc(C2([S@](C)(=N)=O)CC2)nc(-c2ccnc3[nH]ccc23)n1 [AZD6738] + O=C(c1cc(Cc2n[nH]c(=O)c3ccccc23)ccc1F)N1CCN(C(=O)C2CC2)CC1 [Olaparib] (first compound max 10 µM, 7x7, partner max 10 µM)",0.0483,-0.0166,-0.0217,-0.0519,0.0133,0.0197,-0.0135,0.0122,-0.0031,-0.0367,0.02,0.0125,-0.0148,0.701,0.643,0.834,0.61,0.898,0.705,–
"Cc1cc2ncnn2cc1Nc1ncc2c(n1)n(C1CCOCC1)c(=O)n2C [AZD7648] + O=C(c1cc(Cc2n[nH]c(=O)c3ccccc23)ccc1F)N1CCN(C(=O)C2CC2)CC1 [Olaparib] (first compound max 10 µM, 7x7, partner max 10 µM)",-0.0619,0.0105,-0.0199,0.06,-0.02,0.0223,-0.011,-0.0481,-0.0359,-0.031,-0.0664,-0.0441,-0.0398,0.148,0.637,0.455,0.219,0.143,0.218,–
"CS(=O)(=O)CCNCc1ccc(-c2ccc3ncnc(Nc4ccc(OCc5cccc(F)c5)c(Cl)c4)c3c2)o1 [Lapatinib] + Cn1cnc2c(F)c(Nc3ccc(Br)cc3Cl)c(C(=O)NOCCO)cc21 [Selumetinib] (first compound max 10 µM, 7x7, partner max 10 µM)",–,–,–,–,–,–,–,-0.0168,-0.0346,0.146,-0.0366,–,0.0163,–,–,0.432,–,0.43,0.337,-0.0086
"CS(=O)(=O)CCNCc1ccc(-c2ccc3ncnc(Nc4ccc(OCc5cccc(F)c5)c(Cl)c4)c3c2)o1 [Lapatinib] + NC1(c2ccc(-c3nc4ccn5c(=O)[nH]nc5c4cc3-c3ccccc3)cc2)CCC1 [MK-2206] (first compound max 10 µM, 7x7, partner max 10 µM)",–,0.0257,-0.0508,–,-0.0202,-0.0441,–,0.037,0.0427,0.0412,0.0308,–,0.0164,0.89,–,0.81,–,0.667,0.126,0.049
"CCc1c2c(nc3ccc(O)cc13)-c1cc3c(c(=O)n1C2)COC(=O)[C@]3(O)CC [SN-38] + O=C(c1cc(Cc2n[nH]c(=O)c3ccccc23)ccc1F)N1CCN(C(=O)C2CC2)CC1 [Olaparib] (first compound max 0.3 µM, 7x7, partner max 10 µM)",–,0.0687,–,–,0.0337,0.0825,–,0.0331,0.0544,0.028,0.0213,–,0.0174,–,–,1,–,0.62,0.677,0.0993
"Cc1nc(-c2cn3c(n2)-c2ccc(-c4cnn(C(C)(C)C(N)=O)c4)cc2OCC3)n(C(C)C)n1 [Taselisib] + O=C(Nc1ccc2[nH]nc(-c3ccncc3)c2c1)[C@@H]1CCN(CC(=O)N2CCN(c3ccc(-c4ncccn4)cc3)CC2)C1 [SCH772984] (first compound max 10 µM, 7x7, partner max 5 µM)",–,–,–,–,–,–,–,0.0325,0.141,0.203,0.0152,–,0.061,–,–,0.667,–,0.76,0.806,0.032
